According to patent US20110098180A1, “Herbicide-Resistant Plants, And Polynucleotides And Methods For Providing Same” (United States Department of Agriculture, priority 2002, published 2011):

Target: T1, maize PDS Arg→His at position 292 (Zea mays, UniProt P49086, R292H)
T1 construct: vector-encoded N-terminal residues of pBluescript SK+ (in-frame fusion); made in house; host or cells: E. coli TOP10 (clone pMPDS3-33 from E. T. Wurtzel, mutagenised in house)
Assay: Mutant maize PDS enzyme resistance test
Format: biochemical
Excerpt: The same mutagenesis procedure as described in the Examples above was used to convert the same key arginine amino acid (position 292, sequence ID No. 6) to histidine in corn PDS. Mutagenesis primers are listed below. A maize cDNA clone of PDS, that actively expressed PDS (basically sequence U37285 ligated in frame into pBluescript SK^+ and cloned in TOP10-cells) was provided by Eleanore T. Wurtzel, N Y (pMPDS3-33 as described in Z H Li, P D Matthews, B Burr & E T Wurtzel: Cloning and characterization of a maize cDNA encoding phytoene desaturase, an enzyme of the carotenoid biosynthetic pathway. Plant Molecular Biology 30: 269-279, 1996).
The resulting mutant maize PDS polynucleotide and protein were tested generally as described in Example 5 above. The mutant maize PDS enzyme ehxibited 50-fold to 60-fold resistance factor as compared to the wild type maize PDS enzyme.

T1 sequence (P49086 97-571 R292H): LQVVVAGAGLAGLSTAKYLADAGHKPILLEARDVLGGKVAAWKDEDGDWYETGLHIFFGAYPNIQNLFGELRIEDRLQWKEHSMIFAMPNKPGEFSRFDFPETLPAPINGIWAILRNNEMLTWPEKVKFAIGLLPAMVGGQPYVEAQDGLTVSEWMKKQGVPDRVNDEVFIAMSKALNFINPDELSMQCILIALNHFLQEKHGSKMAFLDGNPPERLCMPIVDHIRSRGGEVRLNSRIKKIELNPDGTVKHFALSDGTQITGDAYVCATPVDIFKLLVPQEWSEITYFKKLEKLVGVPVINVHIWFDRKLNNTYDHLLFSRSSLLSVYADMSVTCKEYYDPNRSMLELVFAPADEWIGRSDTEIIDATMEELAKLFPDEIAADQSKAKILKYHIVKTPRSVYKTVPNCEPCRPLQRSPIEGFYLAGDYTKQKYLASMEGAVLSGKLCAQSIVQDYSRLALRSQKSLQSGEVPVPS

## Fluridone
  resistance of modified maize PDS enzyme vs wild-type maize PDS enzyme: substantially more resistant
